Reference: US20120196899A1, “METHODS AND PRODUCTS FOR TREATING INFLAMMATION” (Rock Creek Pharmaceuticals, Inc., priority 2010, published 2012)
Read-outs that look alike come from different tables or passages of the source.

Assays:
[1] = Concentration in brain extracts after single i.v. bolus; assay type: in vivo, Sprague-Dawley rats; details: for concentration at 0.5 h / concentration at 6 h / concentration at 24 h: Sprague-Dawley, rat, brain, intravenous
Experimental: Six rats (3 males and 3 females) were dosed per dose group. […] Plasma and brain homogenates were stored at −80° C. until analysis.
An additional 48 rats (24 males and 24 females) received a single intravenous dose via the tail vein at the same doses as mentioned above. At 30 and 360 minutes post administration, 6 rats (3 males and 3 females) per dose group, per time point were euthanized, bled via cardiac puncture, and perfused, and brains were collected. The brains were homogenized. Blood was spun, and plasma was collected. Plasma and brain homogenate were stored at −80° C.
The animals were weighed prior to dosing and received a single i.v. dose of either test compound at a volume of 5 mL/kg. Blood was collected via the venus plexus (retro-orbital) into tubes containing (K2) EDTA. No more than 0.5 mL was collected per time point. […] The brain was removed, weighed, homogenized in sterile 0.9% saline at a volume equal to its weight, and stored at −80° C.
Sample preparation. […] The amount of the test agent in the supernatant was determined by liquid chromatography tandem mass spectrometry (LC/MS/MS).
Analysis. Samples were analyzed by LC/MS/MS using an Agilent 6410 mass spectrometer coupled with an Agilent 1200 high pressure liquid chromatography (HPLC) and a CTC PAL chilled autosampler, all controlled by MassHunter software (Agilent). After separation on a hydrophilic interaction liquid chromatography (HILIC) HPLC column (Sepax) using an acetonitrile-ammonium acetate/acetic acid gradient system, peaks were analyzed by mass spectrometry (MS) using ESI ionization in multiple reaction monitoring (MRM) mode. MassHunter software was used to calculate the concentration of the test compounds in samples from the peak area using the appropriate calibration curves.
Calibration samples. Calibration curves were determined for both rat plasma and brain homogenate. Calibration samples were prepared by diluting a 50× stock solution of the test compound in PBS with blank matrix to the appropriate concentration and these samples were prepared as described above in the sample preparation.

7W CHO cells = assay: Toxicity in 7W CHO cells; assay type: cell-based
Aβ production = Aβ production in 7W CHO cells; assay type: cell-based
HEK293 = assay: LDH cytotoxicity assay on supernatants of the treated cells; assay type: cell-based, Human
Experimental: Cytotoxicity assays using the supernatants from the treated cells were conducted using an LDH Cytotoxicity Detection Kit (Roche) according to the manufacturer's instructions.

[2] = female, 0.1 mg/kg, Anatabine 0.1 mg/kg, female, read-out: Avg. Conc. rat brain
[3] = female, 0.1 mg/kg, anatabine 0.1 mg/kg i.v., Female, read-out: Mean concentration in rat brain extracts
[4] = female, 0.75 mg/kg, Anatabine 0.75 mg/kg, female, read-out: Avg. Conc. rat brain
[5] = female, 0.75 mg/kg, anatabine 0.75 mg/kg i.v., Female, read-out: Mean concentration in rat brain extracts
[6] = female, 1 mg/kg, Anatabine 1.0 mg/kg, female, read-out: Avg. Conc. rat brain
[7] = female, 1 mg/kg, anatabine 1.0 mg/kg i.v., Female, read-out: Mean concentration in rat brain extracts
[8] = male, 0.1 mg/kg, Anatabine 0.1 mg/kg, male, read-out: Avg. Conc. rat brain
[9] = male, 0.1 mg/kg, anatabine 0.1 mg/kg i.v., Male, read-out: Mean concentration in rat brain extracts
[10] = male, 0.75 mg/kg, Anatabine 0.75 mg/kg, male, read-out: Avg. Conc. rat brain
[11] = male, 1 mg/kg, Anatabine 1.0 mg/kg, male, read-out: Avg. Conc. rat brain
[12] = male, 1 mg/kg, anatabine 1.0 mg/kg i.v., Male, read-out: Mean concentration in rat brain extracts

## C1=CCC(c2cccnc2)NC1 (racemic) [Anatabine, 1,2,3,6-tetrahydro-[2,3′]bipyridinyl]
[1]; both sexes, 1 mg/kg, Concentration of anatabine in rat brain extract, Anatabine 1.0 mg/kg, Rat Brain, individual rats
  concentration at 0.5 h: 349 ng/mL
[1]; [2]
  concentration at 0.5 h: 29.7 ng/g
  concentration at 6 h: 3.7 ng/g
  concentration at 24 h: 2 ng/g
[1]; [3]
  concentration at 0.5 h: 29.7 ± 4.5 ng/g
  concentration at 6 h: 3.7 ± 1.5 ng/g
  concentration at 24 h: 2 ng/g
[1]; [4]
  concentration at 0.5 h: 315 ng/g
  concentration at 6 h: 21 ng/g
[1]; [5]
  concentration at 0.5 h: 315 ± 67.9 ng/g
  concentration at 6 h: 21 ± 6.2 ng/g
[1]; [6]
  concentration at 0.5 h: 346 ng/g
  concentration at 6 h: 6 ng/g
[1]; [7]
  concentration at 0.5 h: 346 ± 56.7 ng/g
  concentration at 6 h: 6 ± 2.8 ng/g
[1]; [8]
  concentration at 0.5 h: 20 ng/g
  concentration at 6 h: 3 ng/g
  concentration at 24 h: 3 ng/g
[1]; [9]
  concentration at 0.5 h: 20 ± 1.4 ng/g
  concentration at 6 h: 3 ng/g
  concentration at 24 h: 3 ng/g
[1]; [10]
  concentration at 0.5 h: 276 ng/g
  concentration at 6 h: 21.3 ng/g
[1]; male, 0.75 mg/kg, anatabine 0.75 mg/kg i.v., Male, read-out: Mean concentration in rat brain extracts
  concentration at 0.5 h: 276 ± 37 ng/g
[1]; [11]
  concentration at 0.5 h: 323 ng/g
  concentration at 6 h: 5 ng/g
  concentration at 24 h: 2.5 ng/g
[1]; [12]
  concentration at 0.5 h: 323 ± 35.9 ng/g
  concentration at 6 h: 5 ± 2.6 ng/g
  concentration at 24 h: 2.5 ± 0.7 ng/g
[1]; single i.v., rats
  appearance in brain tissue following i.v. administration: rapidly appear in brain tissue
7W CHO cells
  toxicity: No toxicity was observed
Aβ production
  Aβ production (Aβ1-42, Aβ1-40): concentration-dependent reduction of Aβ production
HEK293
  cytotoxicity (LDH release): without cellular toxicity
